Each block holds one compound with its values, some of them ahead of it.
Key:
[1] = biological target: T1, recombinant, purified human Caspase-7 (Homo sapiens, UniProt P55210); assay: Caspase-7 enzyme assay, fluorogenic substrate cleavage; type: biochemical; conditions: second order rate constant of enzyme inactivation; substrate Acetyl-Asp-Glu-Val-Asp-amino-4-methylcoumarin
T1 sequence (P55210 24-198 limits assumed): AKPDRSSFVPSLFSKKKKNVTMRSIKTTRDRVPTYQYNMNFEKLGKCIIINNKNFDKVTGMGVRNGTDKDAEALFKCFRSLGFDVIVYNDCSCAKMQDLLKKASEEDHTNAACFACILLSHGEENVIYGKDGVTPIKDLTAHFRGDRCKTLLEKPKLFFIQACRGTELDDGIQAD
T1 sequence (P55210 207-303 limits assumed): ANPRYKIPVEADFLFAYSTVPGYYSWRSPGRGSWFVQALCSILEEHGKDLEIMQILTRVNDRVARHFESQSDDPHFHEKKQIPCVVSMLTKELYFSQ
Text: (§1) The assays for caspase inhibition are based on the cleavage of a fluorogenic substrate by recombinant, purified human Caspases -1, -3, -7 or -8. The assays are run in essentially the same way as those reported by Garcia-Calvo et al. (J. Biol. Chem. 273 (1998), 32608-32613), using a substrate specific for each enzyme. The substrate for Caspase-1 is Acetyl-Tyr-Val-Ala-Asp-amino-4-methylcoumarin. The substrate for Caspases -3, -7 and -8 is Acetyl-Asp-Glu-Val-Asp-amino-4-methylcoumarin.
(§2) The observed rate of enzyme inactivation at a particular inhibitor concentration, kobs, is computed by direct fits of the data to the equation derived by Thornberry et al. (Biochemistry 33 (1994), 3943-3939) using a nonlinear least-squares analysis computer program (PRISM 2.0; GraphPad software). To obtain the second order rate constant, kinact, kobs values are plotted against their respective inhibitor concentrations and kinact values are subsequently calculated by computerized linear regression.

[2] = biological target: T2, recombinant, purified human Caspase-1 (Homo sapiens, UniProt P29466); assay: Caspase-1 enzyme assay, fluorogenic substrate cleavage; type: biochemical; conditions: second order rate constant of enzyme inactivation; substrate Acetyl-Tyr-Val-Ala-Asp-amino-4-methylcoumarin
T2 sequence (P29466 120-297 limits assumed): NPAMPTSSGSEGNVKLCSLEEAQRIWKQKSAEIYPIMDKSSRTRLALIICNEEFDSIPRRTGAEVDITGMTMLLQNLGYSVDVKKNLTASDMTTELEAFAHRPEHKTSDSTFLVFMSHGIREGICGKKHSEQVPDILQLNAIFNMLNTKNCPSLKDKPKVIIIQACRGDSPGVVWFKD
T2 sequence (P29466 317-404 limits assumed): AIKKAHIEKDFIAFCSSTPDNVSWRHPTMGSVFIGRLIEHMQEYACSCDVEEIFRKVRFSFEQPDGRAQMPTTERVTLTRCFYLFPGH
Text: as §1, §2

[3] = biological target: T3, recombinant, purified human Caspase-3 (Homo sapiens, UniProt P42574); assay: Caspase-3 enzyme assay, fluorogenic substrate cleavage; type: biochemical; conditions: second order rate constant of enzyme inactivation; substrate Acetyl-Asp-Glu-Val-Asp-amino-4-methylcoumarin
T3 sequence (P42574 29-175 limits assumed): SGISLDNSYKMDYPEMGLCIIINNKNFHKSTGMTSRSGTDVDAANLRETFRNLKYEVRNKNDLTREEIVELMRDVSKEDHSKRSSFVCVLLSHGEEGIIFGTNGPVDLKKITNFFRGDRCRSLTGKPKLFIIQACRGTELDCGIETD
T3 sequence (P42574 176-277 limits assumed): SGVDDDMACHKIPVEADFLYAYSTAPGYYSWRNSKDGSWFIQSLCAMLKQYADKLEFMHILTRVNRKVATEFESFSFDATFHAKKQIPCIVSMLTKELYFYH
Text: as §1, §2

Jurkat E6.1 cells = assay: Anti-Fas induced apoptosis assay; type: cell-based; conditions: Homo sapiens, anti-Fas antibody CH-11 10 ng/ml, 16-18 hrs, DNA fragmentation
Text: Cellular apoptosis may be induced by the binding of Fas ligand (FasL) to its receptor, CD95 (Fas). CD95 is one of a family of related receptors, known as death receptors, which can trigger apoptosis in cells via activation of the caspase enzyme cascade. The process is initiated by the binding of the adapter molecule FADD/MORT-1 to the cytoplasmic domain of the CD-95 receptor-ligand complex. Caspase-8 then binds FADD and becomes activated, initiating a cascade of events that involve the activation of downstream caspases and subsequent cellular apoptosis. […]
Jurkat E6.1 cells are cultured in complete medium consisting of RPMI-1640 (Sigma No)+10% foetal calf serum (Gibco BRL No. 10099-141)+2 mM L-glutamine (Sigma No. G-7513). […] The cells are counted and the density adjusted to 2×10^6 cells/ml with complete medium. […]
Apoptosis of the cells is measured by the quantitation of DNA fragmentation using a ‘Cell Death Detection Assay’ from Boehringer-Mannheim, No. 1544 675. […] OD405 nm is measured 20 minutes after addition of the final substrate in a SPECTRAmax Plus plate reader (Molecular Devices). OD405 nm is plotted versus compound concentration and the IC50 values for the compounds are calculated using the curve-fitting program SOFTmax Pro (Molecular Devices) using the four parameter fit option.

[4] = system: IL-1β secretion from peripheral blood mononuclear cells (PBMC); assay: Inhibition of IL-1β secretion from PBMC; type: cell-based; conditions: human PBMC, LPS 50 ng/ml, 16-18 h, mature IL-1β in supernatant
Method: Processing of pre-IL-1β by caspase-1 can be measured in cell culture using a variety of cell sources. Human PBMC obtained from healthy donors provides a mixed population of lymphocyte and mononuclear cells that produce a spectrum of interleukins and cytokines in response to many classes of physiological stimulators.
The test compound is dissolved in Dimethyl Sulphoxide (DMSO, Sigma #D-2650) to give a 100 mM stock solution. This is diluted in complete medium consisting of RPMI containing 10% heat inactivated FCS (Gibco BRL #10099-141), 2 mM L-Glutamine (Sigma, #G-7513), 100 U penicillin and 100 μg/ml streptomycin (Sigma #P-7539). The final concentration range of test compound is from 100 μM down to 6 nM over eight dilution steps. The highest concentration of test compound is equivalent to 0.1% DMSO in the assay.
Human PBMC are isolated from Buffy Coats obtained from the blood bank using centrifugation on Ficoll-Paque leukocyte separation medium (Amersham, #17-1440-02) and the cellular assay is performed in a sterile 96 well flat-bottomed plate (Nunc). Each well contains 100 μl of the cell suspension, 1×10^5 cells, 50 μl of compound dilutions and 50 μl of LPS (Sigma #L-3012) at 50 ng/ml final concentration. Controls consist of cells +/− LPS stimulation and a serial dilution of DMSO diluted in the same way as compound. […]

[5] = biological target: recombinant, purified human Caspase-8 (Homo sapiens, UniProt Q14790); assay: Caspase-8 enzyme assay, fluorogenic substrate cleavage; type: biochemical; conditions: second order rate constant of enzyme inactivation; substrate Acetyl-Asp-Glu-Val-Asp-amino-4-methylcoumarin
recombinant, purified human Caspase-8, sequence (Q14790 217-374 limits assumed): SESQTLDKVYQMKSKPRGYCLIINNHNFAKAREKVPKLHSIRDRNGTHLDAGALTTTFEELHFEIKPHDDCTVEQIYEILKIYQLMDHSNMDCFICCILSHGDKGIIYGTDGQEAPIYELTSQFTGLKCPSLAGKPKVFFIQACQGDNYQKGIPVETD
recombinant, purified human Caspase-8, sequence (Q14790 385-479 limits assumed): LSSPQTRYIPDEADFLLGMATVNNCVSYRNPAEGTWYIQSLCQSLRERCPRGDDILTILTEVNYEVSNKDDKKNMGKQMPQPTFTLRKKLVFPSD
Text: as §1, §2

SMILES: O=C(O)CC(NC(=O)[C@@H]1CCCc2nc3ccccc3c(=O)n21)C(=O)CF (stereo partly drawn) [Example 2, [3S/R(9S)]-5-Fluoro-4-oxo-3-(11-oxo-6,7,8,9-tetrahydro-11H-pyrido[2,1-b]quinazolin-9-carboxamido)-pentanoic acid]
Kinact, Caspase-1 Activity [2]: 455000 M⁻¹ s⁻¹

SMILES: O=C(O)CC(NC(=O)[C@@H]1CCc2nc3ccccc3c(=O)n21)C(=O)CF (stereo partly drawn) [Example 1, [3S/R(1S)]-3-(2,3-Dihydro-1H-9-oxo-pyrrolo[2,1-b]quinazolin-1-carboxamido)-5-fluoro-4-oxo-pentanoic acid]
Kinact, Caspase-3 Activity [3]: 160500 M⁻¹ s⁻¹

SMILES: O=C(O)CC(NC(=O)[C@@H]1CCCc2cc3ccccc3c(=O)n21)C(=O)CF (stereo partly drawn) [Example 4, [3S/R(4S)]-5-Fluoro-4-oxo-3-(6-oxo-1,2,3,4-tetrahydro-6H-benzo[b]quinolizin-4-carboxamido)-pentanoic acid]
IC50 [4]: 569 nM

More lines, now with the values ahead:

Kinact, Caspase-7 Activity [1]: 229000 M⁻¹ s⁻¹
SMILES: O=C(O)CC(NC(=O)[C@@H]1CCc2cc3ccccc3c(=O)n21)C(=O)CF (stereo partly drawn) [Example 3, [3S/R(3S)]-3-(2,3-Dihydro-1H-5-oxo-pyrrolo[1,2-b]isoquinolin-3-carboxamido)-5-fluoro-4-oxo-pentanoic acid]

IC50 (Jurkat E6.1 cells): 168 nM
SMILES: O=C(O)CC(NC(=O)[C@@H]1CCCn2c(=O)c3nccnc3c(=O)n21)C(=O)CF (stereo partly drawn) [Example 6, [3S/R(5S)]-(9,10-Dioxo-5,6,7,8,9,10-hexahydro-1,4,8a,10a-tetraazaanthracene-5-carboxamido)-5-fluoro-4-oxo-3-pentanoic acid]

Caspase-8 Kinact [5]: 82000 M⁻¹ s⁻¹
SMILES: O=C(O)CC(NC(=O)[C@@H]1CCCn2c(=O)c3ccccc3c(=O)n21)C(=O)CF (stereo partly drawn) [Example 5, [3S/R(1S)]-3-(6,11-Dioxo-1,2,3,4-tetrahydro-pyridazino[1,2-b]phthalazin-1-carboxamido)-5-fluoro-4-oxo-pentanoic acid]

From patent US7968716B2, “Caspase inhibitors and uses thereof” (Vertex Pharmaceuticals Incorporated, priority 2000, dated 2011)
